Experimental data: patent publication US12077483B2, “Modified amine lipids” (Intellia Therapeutics, Inc., priority 2018, dated 2024)
Where “and” joins values, the source holds several entries; their conditions need not be identical. Equal values may be shown once.

Assays:
[1] = pKa of amine lipid by TNS fluorescence; assay type: physicochemical; conditions: probe TNS (6-(p-toluidino)-2-naphthalenesulfonic acid sodium salt), unformulated amine lipid in ethanol, sodium phosphate buffers -9.0
How it was run: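 pKa derived from a sigmoidal fit of normalized TNS fluorescence (321 nm excitation, 448 nm emission) versus pH. Lipid from ethanol stock diluted to about 100 μM final in 0.1 M phosphate buffers, pH 4.5–9.0.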

[2] = LNP average particle size and polydispersity by dynamic light scattering; assay type: physicochemical
How it was run: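 LNPs were diluted in PBS to a count rate of about 200-400 kcps and measured by DLS on a Zetasizer. Size is the intensity-weighted Z-average diameter, reported with number-average diameter, and the polydispersity index describes the spread of sizes around the mean.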

[3] = RNA encapsulation efficiency of LNP (Ribogreen fluorescence assay); assay type: physicochemical; conditions: for % E: Table 13, LNP sgRNA:Cas9 mRNA 1:2 w/w, N/P 6.0
How it was run: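 LNP samples diluted in 1× TE with or without 0.2% Triton-X 100 for total or free RNA, stained ~10 min at room temperature in the dark with RiboGreen; fluorescence ex 488/em 525 nm against RNA standard curves. Encapsulation efficiency = (Total RNA−Free RNA)/Total RNA.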

mouse TTR = assay: Serum TTR ELISA in mice after LNP delivery; assay type: in vivo
How it was run: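 Mouse TTR in serum was quantified by ELISA (samples diluted e.g. 10,000- and/or 2,500-fold) 6–7 days after dosing CD-1 females with LNP, typically 0.1 mpk. Values are reported relative to vehicle-treated controls (%).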

[4] = LNP with the compound as amine lipid, Expt. 4, composition ratio (mol %) 50/9/38/3 for Cmpnd 49, 50/10/38.5/1.5 for the others
[5] = Table 3, guide G282, CD-1 female mice, 0.1 mpk i.v., Exp. 1, 8, 9, 10
[6] = Table 3, guide G282, CD-1 female mice, 0.1 mpk i.v., percentage of vehicle control (TSS)
[7] = mouse serum, relative to TSS control of same experiment, dose 0.03 mpk
[8] = mouse serum, relative to TSS control of same experiment, dose 0.1 mpk
[9] = LNP with the compound as amine lipid, Expt. 3, composition ratio (mol %) 50/9/38/3 for Cmpnd 49, 50/10/38.5/1.5 for the others
[10] = LNP with the compound as amine lipid, Expt. 10, composition ratio (mol %) 50/9/38/3 for Cmpnd 49, 50/10/38.5/1.5 for the others
[11] = Table 13, LNP sgRNA:Cas9 mRNA 1:2 w/w, N/P 6.0
[12] = LNP with the compound as amine lipid, Expt. 1, composition ratio (mol %) 50/9/38/3 for Cmpnd 49, 50/10/38.5/1.5 for the others
[13] = LNP with the compound as amine lipid, Expt. 6, composition ratio (mol %) 50/9/38/3 for Cmpnd 49, 50/10/38.5/1.5 for the others
[14] = Table 6, LNP with G00282 sgRNA:Cas9 mRNA 1:1 w/w
[15] = Table 10, LNP with G00534 sgRNA:Cas9 mRNA 1:2 w/w
[16] = mouse serum, relative to TSS control of same experiment, dose 0.03 mpk, 0.03 mg/kg
[17] = LNP with the compound as amine lipid, Expt. 5, composition ratio (mol %) 50/10/38.5/1.5
[18] = LNP with the compound as amine lipid, Expt. 9, composition ratio (mol %) 50/9/38/3 for Cmpnd 49, 50/10/38.5/1.5 for the others

Q: For `CCCCC/C=C\C/C=C\CCCCCCCC(=O)OCC(COC(=O)CCCCCCC/C=C\C/C=C\CCCCC)OC(=O)CCC(CCCCCC)OC(=O)NCCN(C)CC` (stereo not drawn) [Compound 40, 2-((4-(((2-(ethyl(methyl)amino)ethyl)carbamoyl)oxy)decanoyl)oxy)propane-1,3-diyl (9Z,9′Z,12Z,12′Z)-bis(octadeca-9,12-dienoate)], which pKa [1] is on record?
A: 6.34

Q: And the “Num Ave Size (nm)” value [2, 4]?
A: 81.51 nm

Q: And the PDI [2, 4]?
A: 0.027

Q: And the “Z-Ave Size (nm)” value [2, 4]?
A: 101.10 nm

Q: What about the “Encapsulation (%)” value [3, 4] of the same molecule?
A: 97%

Q: And the “Serum TTR” value (mouse TTR; [5])?
A: 251 µg/mL

Q: What about the “Serum TTR % TSS” value (mouse TTR; [6]) of the same molecule?
A: 31% TSS

Q: What about the “Serum TTR % TSS” value (mouse TTR; [7]) of the same molecule?
A: 77% TSS

Q: And the “Serum TTR % TSS” value (mouse TTR; [8])?
A: 9% TSS

Q: What does the source list for `CCCCC/C=C\C/C=C\CCCCCCCC(=O)OCC(COC(=O)CCCCCCC/C=C\C/C=C\CCCCC)OC(=O)CCC(CCCCCCCC)OC(=O)NCCN1CCCC1` (stereo not drawn) [Compound 51, 2-((4-(((2-(pyrrolidin-1-yl)ethyl)carbamoyl)oxy)dodecanoyl)oxy)propane-1,3-diyl (9Z,9′Z,12Z,12′Z)-bis(octadeca-9,12-dienoate)]?
A: pKa [1]: 6.37; Num Ave Size (nm) [2, 9]: 80.57 nm; PDI [2, 9]: 0.02; Z-Ave Size (nm) [2, 9]: 96.78 nm; Num Ave Size (nm) [2, 10]: 82 nm; PDI [2, 10]: 0.02; Z-Ave Size (nm) [2, 10]: 98 nm; Number Average [nm] [2, 11]: 80 nm; PDI [2, 11]: 0.009; Z-Ave Size (nm) [2, 11]: 97.21 nm; Encapsulation (%) [3, 9]: 98%; Encapsulation (%) [3, 10]: 98%; % E [3]: 98%; Serum TTR % TSS (mouse TTR; [8]): 9.32 % TSS

Q: Which pKa [1] does the source give for `CCCCC/C=C\C/C=C\CCCCCCCC(=O)OCC(COC(=O)CCCCCCC/C=C\C/C=C\CCCCC)OC(=O)CCC(CCCCCCCC)OC(=O)NCCN(C)CC` (stereo not drawn) [Compound 34, 2-((4-(((2-(ethyl(methyl)amino)ethyl)carbamoyl)oxy)dodecanoyl)oxy)propane-1,3-diyl (9Z,9′Z,12Z,12′Z)-bis(octadeca-9,12-dienoate)] here?
A: 6.36

Q: And the “Num Ave Size (nm)” value [2, 12]?
A: 76.32 nm

Q: What about the PDI [2, 12] of the same molecule?
A: 0.02

Q: What about the “Z-Ave Size (nm)” value [2, 12] of the same molecule?
A: 93.66 nm

Q: And the “Num Ave Size (nm)” value [2, 13]?
A: 73 nm

Q: And the PDI [2, 13]?
A: 0.03

Q: And the “Z-Ave Size (nm)” value [2, 13]?
A: 89.00 nm

Q: And the “Num Ave Size (nm)” value [2, 10]?
A: 77 nm

Q: What about the PDI [2, 10] of the same molecule?
A: 0.03

Q: What about the “Z-Ave Size (nm)” value [2, 10] of the same molecule?
A: 95 nm

Q: And the “Num Ave Size (nm)” value [2, 14]?
A: 71.97 nm

Q: And the PDI [2, 14]?
A: 0.015

Q: What about the “Z-Ave Size (nm)” value [2, 14] of the same molecule?
A: 86.45 nm

Q: What about the “Num Avg Size (nm)” value [2, 15] of the same molecule?
A: 76.08 nm

Q: What about the PDI [2, 15] of the same molecule?
A: 0.052

Q: And the “Z-Avg Size (nm)” value [2, 15]?
A: 96.43 nm

Q: What about the “Number Average [nm]” value [2, 11] of the same molecule?
A: 75.88 nm

Q: And the PDI [2, 11]?
A: 0.009

Q: And the “Z-Ave Size (nm)” value [2, 11]?
A: 93.01 nm

Q: And the “Encapsulation (%)” value [3, 12]?
A: 98%

Q: And the “Encapsulation (%)” value [3, 13]?
A: 98%

Q: And the Encapsulation (%) [3, 10]?
A: 98%

Q: What about the “Encapsulation (%)” value [3, 14] of the same molecule?
A: 98%

Q: And the “Encapsulation (%)” value [3, 15]?
A: 93%

Q: And the “% E” value [3]?
A: 97%

Q: What about the “Serum TTR” value (mouse TTR; Table 7, G00282, CD-1 female mice i.v., dose 0.1 mpk) of the same molecule?
A: 170 µg/mL

Q: And the “Serum TTR % TSS” value (mouse TTR; Table 7, G00282, CD-1 female mice i.v., dose 0.1 mpk, percentage of vehicle control)?
A: 21% TSS

Q: And the “Serum TTR” value (mouse TTR; Table 7, G00282, CD-1 female mice i.v., dose 0.3 mpk)?
A: 45 µg/mL

Q: And the “Serum TTR % TSS” value (mouse TTR; Table 7, G00282, CD-1 female mice i.v., dose 0.3 mpk, percentage of vehicle control)?
A: 5% TSS

Q: And the “Serum TTR % TSS” value (mouse TTR; [16])?
A: 55% TSS and 85.10 % TSS

Q: Which pKa [1] does the source give for `CCCCC/C=C\C/C=C\CCCCCCCC(=O)OCC(COC(=O)CCCCCCC/C=C\C/C=C\CCCCC)OC(=O)CCC(CCCCCCCCCC)OC(=O)NCCN(C)CC` (stereo not drawn) [Compound 39, 2-((4-(((2-(ethyl(methyl)amino)ethyl)carbamoyl)oxy)tetradecanoyl)oxy)propane-1,3-diyl (9Z,9′Z,12Z,12′Z)-bis(octadeca-9,12-dienoate)] here?
A: 6.32

Q: And the “Num Ave Size (nm)” value [2, 4]?
A: 73.52 nm

Q: What about the PDI [2, 4] of the same molecule?
A: 0.015

Q: And the “Z-Ave Size (nm)” value [2, 4]?
A: 89.83 nm

Q: What about the “Encapsulation (%)” value [3, 4] of the same molecule?
A: 98%

Q: What about the “Serum TTR” value (mouse TTR; [5]) of the same molecule?
A: 335 µg/mL

Q: And the “Serum TTR % TSS” value (mouse TTR; [6])?
A: 41% TSS

Q: What about the “Serum TTR % TSS” value (mouse TTR; [7]) of the same molecule?
A: 41% TSS

Q: And the “Serum TTR % TSS” value (mouse TTR; [8])?
A: 6% TSS

Q: For `CCCCC/C=C\C/C=C\CCCCCCCC(=O)OCC(COC(=O)CCCCCCC/C=C\C/C=C\CCCCC)OC(=O)CCC(CCCCCC)OC(=O)NCCN1CCCC1` (racemic) [Compound 50, 2-((4-(((2-(pyrrolidin-1-yl)ethyl)carbamoyl)oxy)decanoyl)oxy)propane-1,3-diyl (9Z,9′Z,12Z,12′Z)-bis(octadeca-9,12-dienoate)], which pKa [1] is on record?
A: 6.5

Q: And the “Num Ave Size (nm)” value [2, 9]?
A: 76.57 nm

Q: And the PDI [2, 9]?
A: 0.02

Q: And the “Z-Ave Size (nm)” value [2, 9]?
A: 94.33 nm

Q: And the “Num Ave Size (nm)” value [2, 17]?
A: 77 nm

Q: What about the PDI [2, 17] of the same molecule?
A: 0.06

Q: And the “Z-Ave Size (nm)” value [2, 17]?
A: 103.00 nm

Q: What about the “Num Ave Size (nm)” value [2, 18] of the same molecule?
A: 78 nm

Q: And the PDI [2, 18]?
A: 0.04

Q: What about the “Z-Ave Size (nm)” value [2, 18] of the same molecule?
A: 98 nm

Q: What about the “Num Avg Size (nm)” value [2, 15] of the same molecule?
A: 79.18 nm

Q: And the PDI [2, 15]?
A: 0.050

Q: What about the “Z-Avg Size (nm)” value [2, 15] of the same molecule?
A: 98.55 nm

Q: And the “Number Average [nm]” value [2, 11]?
A: 84.16 nm

Q: What about the PDI [2, 11] of the same molecule?
A: 0.021

Q: And the “Z-Ave Size (nm)” value [2, 11]?
A: 102.8 nm

Q: And the “Encapsulation (%)” value [3, 9]?
A: 98%

Q: What about the “Encapsulation (%)” value [3, 17] of the same molecule?
A: 98%

Q: What about the “Encapsulation (%)” value [3, 18] of the same molecule?
A: 97%

Q: And the “Encapsulation (%)” value [3, 15]?
A: 87%

Q: And the “% E” value [3]?
A: 97%

Q: What about the “Serum TTR % TSS” value (mouse TTR; [16]) of the same molecule?
A: 71.3 % TSS and 45.51 % TSS and 70.1 % TSS
